Test [1] addresses T1, Macrophage metalloelastase (Homo sapiens, UniProt P39900). Description: Time dependent inhibition of human recombinant MMP12 by progress curve enzyme inhibition assay. As to conditions: read-out: Ki(app).
Target sequence in this assay (P39900 whole entry): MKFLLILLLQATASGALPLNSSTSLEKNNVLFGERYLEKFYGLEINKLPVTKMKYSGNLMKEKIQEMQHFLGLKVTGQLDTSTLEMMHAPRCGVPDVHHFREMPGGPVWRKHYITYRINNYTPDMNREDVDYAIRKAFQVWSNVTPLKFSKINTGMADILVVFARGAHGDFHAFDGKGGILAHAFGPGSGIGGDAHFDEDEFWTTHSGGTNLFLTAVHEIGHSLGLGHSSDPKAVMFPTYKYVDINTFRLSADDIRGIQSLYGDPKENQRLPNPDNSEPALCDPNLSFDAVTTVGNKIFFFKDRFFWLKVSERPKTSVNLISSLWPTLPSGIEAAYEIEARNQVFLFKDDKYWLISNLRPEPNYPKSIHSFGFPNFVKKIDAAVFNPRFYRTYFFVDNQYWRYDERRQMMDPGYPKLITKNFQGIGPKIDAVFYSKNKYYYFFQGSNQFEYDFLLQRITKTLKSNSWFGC
Test [2] addresses T1, Macrophage metalloelastase. Description: Inhibition of human recombinant MMP12 using Mca-Pro-Leu-Gly-Leu-Dpa-Ala-Arg-NH2 as substrate incubated for 10 mins prior to substrate addition by spectrophotometry. As to conditions: read-out: Ki(app).
Target sequence in this assay (P39900 whole entry): as above
In test [3] the target is T1, Macrophage metalloelastase. As to the kind of experiment: Inhibition of human recombinant MMP12 by SPR assay. On the technique in general: In SPR one partner is held on a chip, and binding of the other changes the refractive index at the surface.
Target sequence in this assay (P39900 106-470 limits assumed): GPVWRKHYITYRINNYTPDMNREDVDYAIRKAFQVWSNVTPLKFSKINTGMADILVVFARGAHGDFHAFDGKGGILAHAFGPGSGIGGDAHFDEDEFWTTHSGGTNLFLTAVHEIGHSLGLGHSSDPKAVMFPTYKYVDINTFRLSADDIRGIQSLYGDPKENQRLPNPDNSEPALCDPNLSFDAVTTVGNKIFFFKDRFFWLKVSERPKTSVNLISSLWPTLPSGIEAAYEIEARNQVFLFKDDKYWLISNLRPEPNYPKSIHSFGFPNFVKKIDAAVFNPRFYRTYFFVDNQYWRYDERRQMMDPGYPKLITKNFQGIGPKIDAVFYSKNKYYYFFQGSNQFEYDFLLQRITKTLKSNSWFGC

Consider `COc1ccc(S(=O)(=O)N2CC(C)(C)CN(S(=O)(=O)c3ccc(OC)cc3)C2C(=O)NO)cc1`, for which the Ki in test [1] is 0.61 nM; in test [2], 1.9 nM.

Turning to `CNC(=O)[C@H](Cc1ccccc1)NC(=O)[C@H](CCc1ccc(-c2cccnc2)cc1)CC(=O)O`, the Ki in test [2] is 48 nM. Also, in test [3], the inhibition entry was “Dose-dependent effect”.

As for `CCN(CC)Cc1cc(C)c(N(Cc2ccccc2)S(=O)(=O)c2ccc(OC)cc2)cc1C(=O)NO`, the Ki in test [1] amounted to 3.53 nM; in test [2] it was 30 nM.

As for `CNC(=O)[C@H](Cc1ccccc1)NC(=O)[C@H](CCc1ccc(-c2cccnc2)cc1)CC(=O)NO`, in test [2], the Ki was determined as 1 nM.

For the compound `CNC(=O)[C@H](Cc1c[nH]c2ccccc12)NC(=O)[C@@H](CC(=O)NO)CC(C)C` [ILOMASTAT], the figures for the Ki in test [1] and in test [2] were 0.52 nM and 3.8 nM, respectively. The inhibition result in test [3] was “Dose-dependent effect”.
